Holding throughout (format): ADME
Data set [1] deals with T1, Albumin (Bos taurus, UniProt P02769). The experiment in a line: Binding affinity to bovine serum albumin beta-sheet (1640 to 1610 cm'-1) at 0.5 mM after 2 hrs by FTIR spectroscopic analysis. The settings on record: cattle, isolated protein, 500 µM.
Data set [2] has as its target T1, Albumin. As to the kind of experiment: Binding affinity to bovine serum albumin random coil (1648 to 1641 cm'-1) at 0.5 mM after 2 hrs by FTIR spectroscopic analysis. The settings on record: cattle, isolated protein, 500 µM.
The target of data set [3] is T1, Albumin. As to the kind of experiment: Binding affinity to bovine serum albumin alpha-helix (1660 to 1650 cm'-1) at 0.5 mM after 2 hrs by FTIR spectroscopic analysis. The settings on record: cattle, isolated protein, 500 µM.
In data set [4] the target is T1, Albumin. As to the kind of experiment: Binding affinity to bovine serum albumin beta-antiparallel (1692 to 1680 cm'-1) at 0.5 mM after 2 hrs by FTIR spectroscopic analysis. The settings on record: cattle, isolated protein, 500 µM.
For data set [5], the target named is T1, Albumin. The experiment in a line: Binding affinity to bovine serum albumin by fluorescence quenching assay. The settings on record: cattle, isolated protein.
The target in data set [6] is T1, Albumin. The experiment in a line: Binding affinity to bovine serum albumin beta-sheet at 0.5 mM by circular dichroism analysis. The settings on record: cattle, isolated protein, 500 µM.
Data set [7] concerns the target T1, Albumin. The experiment in a line: Binding affinity to bovine serum albumin alpha-helix at 0.5 mM by circular dichroism analysis. The following applies: cattle, isolated protein, 500 µM. In general terms: Circular dichroism is the unequal absorption of left and right circularly polarised light.
The target of data set [8] is T1, Albumin. The experiment in a line: Binding affinity to bovine serum albumin random coil at 0.5 mM by circular dichroism analysis. The settings on record: cattle, isolated protein, 500 µM.
In data set [9] the target is T1, Albumin. The experiment in a line: Binding affinity to bovine serum albumin turn (1680 to 1660 cm'-1) at 0.5 mM after 2 hrs by FTIR spectroscopic analysis. The following applies: cattle, isolated protein, 500 µM.
Data set [10] concerns the target T1, Albumin. As to the kind of experiment: Binding affinity to bovine serum albumin turn at 0.5 mM by circular dichroism analysis. The following applies: cattle, isolated protein, 500 µM.
Data set [11] deals with T1, Albumin. The experiment in a line: Binding affinity to bovine serum albumin by fluorescence spectroscopy analysis. The following applies: cattle, isolated protein.
The target of data set [12] is T1, Albumin. The experiment in a line: Binding affinity to bovine serum albumin at 0.125 mM after 2 hrs by FTIR spectroscopic analysis. The following applies: cattle, isolated protein, 125 µM.
Data set [13] concerns the target T1, Albumin. The experiment in a line: Binding affinity to bovine serum albumin turn (1680 to 1660 cm'-1) at 0.1 mM after 2 hrs by FTIR spectroscopic analysis. The settings on record: cattle, isolated protein, 100 µM.
The target in data set [14] is T1, Albumin. As to the kind of experiment: Binding affinity to bovine serum albumin random coil (1648 to 1641 cm'-1) at 0.1 mM after 2 hrs by FTIR spectroscopic analysis. The settings on record: cattle, isolated protein, 100 µM.
The target of data set [15] is T1, Albumin. As to the kind of experiment: Binding affinity to bovine serum albumin beta-antiparallel (1692 to 1680 cm'-1) at 0.1 mM after 2 hrs by FTIR spectroscopic analysis. The settings on record: cattle, isolated protein, 100 µM.
The target of data set [16] is T1, Albumin. As to the kind of experiment: Binding affinity to bovine serum albumin alpha-helix (1660 to 1650 cm'-1) at 0.1 mM after 2 hrs by FTIR spectroscopic analysis. The following applies: cattle, isolated protein, 100 µM.
The target of data set [17] is T1, Albumin. As to the kind of experiment: Binding affinity to bovine serum albumin beta-sheet (1640 to 1610 cm'-1) at 0.1 mM after 2 hrs by FTIR spectroscopic analysis. The following applies: cattle, isolated protein, 100 µM.

T1 sequence (P02769 whole entry): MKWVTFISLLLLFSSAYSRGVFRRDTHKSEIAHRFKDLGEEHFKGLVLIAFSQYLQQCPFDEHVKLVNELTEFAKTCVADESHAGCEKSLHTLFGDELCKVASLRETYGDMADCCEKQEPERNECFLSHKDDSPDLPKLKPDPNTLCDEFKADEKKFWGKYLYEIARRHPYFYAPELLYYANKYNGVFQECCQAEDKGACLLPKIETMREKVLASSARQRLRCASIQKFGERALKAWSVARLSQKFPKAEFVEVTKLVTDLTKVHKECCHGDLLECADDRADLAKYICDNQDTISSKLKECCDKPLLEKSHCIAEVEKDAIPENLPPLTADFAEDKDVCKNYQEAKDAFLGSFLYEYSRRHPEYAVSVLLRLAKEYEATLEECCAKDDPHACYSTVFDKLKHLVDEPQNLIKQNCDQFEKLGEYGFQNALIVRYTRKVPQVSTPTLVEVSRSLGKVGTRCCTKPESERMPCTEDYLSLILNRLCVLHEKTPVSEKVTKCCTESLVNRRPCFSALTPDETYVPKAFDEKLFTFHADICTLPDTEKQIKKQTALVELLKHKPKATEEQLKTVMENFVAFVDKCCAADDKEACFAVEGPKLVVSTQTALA

As to `CC1=C(/C=C/C(C)=C/C=C/C(C)=C/CO)C(C)(C)CCC1` [RETINOL], the Activity stood at 19% on Albumin [1]; 20% on Albumin [2]; 36% at Albumin [3]; 10% on Albumin [4]; 16% on Albumin [6]; 52% on Albumin [7]. For the same molecule, the Activity at Albumin [8] is reported as 18%; at Albumin [9], 15%; on Albumin [10] it was 14%; at Albumin [12], “Active”. Moreover, the Kq on Albumin [5] is reported as 4.5 ×10¹³ /M/sec. For the same molecule, the K on Albumin [11] was 5.3 ×10⁶ /M.
Regarding `CC1=C(/C=C/C(C)=C/C=C/C(C)=C/C(=O)O)C(C)(C)CCC1` [TRETINOIN], the Activity on Albumin [13] was 27%; at Albumin [14], 25%; at Albumin [15] it was 7%; at Albumin [6], 18%; on Albumin [7] it was 44%; at Albumin [16], 26%. Besides, the Activity on Albumin [8] is recorded as 20%; at Albumin [10], 18%; on Albumin [17], 15%; on Albumin [12] it was “Active”. Besides, the Kq at Albumin [5] is reported as 2.5 ×10¹³ /M/sec. Further, the K on Albumin [11] stood at 2.3 ×10⁶ /M.

The values above are taken from ChEMBL document CHEMBL2169873, “Binding sites of retinol and retinoic acid with serum albumins” (Eur J Med Chem, 2012).
